Target: T1, RdsA (YhiN) (Escherichia coli, UniProt P37631)
T1 sequence (P37631 1-400): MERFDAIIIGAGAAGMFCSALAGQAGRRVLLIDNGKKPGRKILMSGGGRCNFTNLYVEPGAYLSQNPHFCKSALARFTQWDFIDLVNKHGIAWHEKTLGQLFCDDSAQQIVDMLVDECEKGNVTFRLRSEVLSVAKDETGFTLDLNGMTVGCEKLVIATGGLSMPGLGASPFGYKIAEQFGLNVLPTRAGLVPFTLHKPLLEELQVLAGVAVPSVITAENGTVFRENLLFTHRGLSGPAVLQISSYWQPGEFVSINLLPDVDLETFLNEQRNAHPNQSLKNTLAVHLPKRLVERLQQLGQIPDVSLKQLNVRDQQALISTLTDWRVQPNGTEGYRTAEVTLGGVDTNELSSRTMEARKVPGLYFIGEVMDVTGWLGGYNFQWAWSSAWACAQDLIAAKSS
Assay: UV/visible spectrum of purified protein
Type: binding
Settings: as purified; noncovalent

Cc1cc2nc3c(=O)[nH]c(=O)nc-3n(C[C@H](O)[C@H](O)[C@H](O)COP(=O)(O)OP(=O)(O)OC[C@H]3O[C@@H](n4cnc5c(N)ncnc54)[C@H](O)[C@@H]3O)c2cc1C [FAD]
holoprotein fraction (oxidized flavin): 61%

From article PMC11317573 (Proceedings of the National Academy of Sciences of the …, 2024)
